In ChEMBL document CHEMBL4130593, “Identification of an Indazole-Based Pharmacophore for the Inhibition of FGFR Kinases Using Fragment-Led de Novo Design” (ACS Med Chem Lett, 2017):
pIC50: −log10 of the molar value.

Tests used:
[1] = target: T1, Fibroblast growth factor receptor 1 (Homo sapiens, UniProt P11362); assay: Inhibition of recombinant human His-tagged FGFR1 cytoplasmic domain (308 to 731 residues) expressed in baculovirus expression system at 500 uM using Tyr 04 as substrate measured after 1 hr by Z'-LYTE assay relative to control
T1 sequence (P11362 whole entry, the tested form may be a part): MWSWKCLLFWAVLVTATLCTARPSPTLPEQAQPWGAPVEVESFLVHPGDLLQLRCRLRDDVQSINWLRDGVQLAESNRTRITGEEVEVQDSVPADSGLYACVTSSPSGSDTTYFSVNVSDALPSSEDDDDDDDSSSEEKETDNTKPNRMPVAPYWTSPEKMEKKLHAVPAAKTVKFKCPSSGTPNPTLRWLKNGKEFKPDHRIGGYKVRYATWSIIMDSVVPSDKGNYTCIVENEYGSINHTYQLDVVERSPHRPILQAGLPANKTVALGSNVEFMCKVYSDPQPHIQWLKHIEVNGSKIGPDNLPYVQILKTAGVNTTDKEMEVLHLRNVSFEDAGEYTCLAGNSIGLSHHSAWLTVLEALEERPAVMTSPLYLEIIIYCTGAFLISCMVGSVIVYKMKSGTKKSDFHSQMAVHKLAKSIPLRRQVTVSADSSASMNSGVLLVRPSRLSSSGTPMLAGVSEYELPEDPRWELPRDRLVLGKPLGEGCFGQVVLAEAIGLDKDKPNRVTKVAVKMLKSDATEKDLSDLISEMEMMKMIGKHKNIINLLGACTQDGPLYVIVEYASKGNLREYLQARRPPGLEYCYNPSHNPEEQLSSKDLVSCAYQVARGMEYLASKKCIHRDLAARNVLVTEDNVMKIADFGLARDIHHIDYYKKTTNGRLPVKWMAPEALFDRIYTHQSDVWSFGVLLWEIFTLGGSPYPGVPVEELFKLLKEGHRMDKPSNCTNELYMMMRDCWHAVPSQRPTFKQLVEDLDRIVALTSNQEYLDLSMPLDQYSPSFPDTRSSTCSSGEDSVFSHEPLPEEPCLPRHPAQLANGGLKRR

[2] = target: T1, Fibroblast growth factor receptor 1; assay: Inhibition of recombinant human His-tagged FGFR1 cytoplasmic domain (308 to 731 residues) expressed in baculovirus expression system using Tyr 04 as substrate measured after 1 hr by Z'-LYTE assay
[3] = target: T1, Fibroblast growth factor receptor 1; assay: Inhibition of recombinant human His-tagged FGFR1 cytoplasmic domain (308 to 731 residues) expressed in baculovirus expression system at 100 uM using Tyr 04 as substrate measured after 1 hr by Z'-LYTE assay relative to control
[4] = target: Fibroblast growth factor receptor 3 (Homo sapiens, UniProt P22607); assay: Inhibition of recombinant human His-tagged FGFR3 cytoplasmic domain (399 to 806 residues) expressed in baculovirus expression system using Tyr 04 as substrate measured after 1 hr by Z'-LYTE assay
Chain of Fibroblast growth factor receptor 3 (P22607 whole entry, the tested form may be a part): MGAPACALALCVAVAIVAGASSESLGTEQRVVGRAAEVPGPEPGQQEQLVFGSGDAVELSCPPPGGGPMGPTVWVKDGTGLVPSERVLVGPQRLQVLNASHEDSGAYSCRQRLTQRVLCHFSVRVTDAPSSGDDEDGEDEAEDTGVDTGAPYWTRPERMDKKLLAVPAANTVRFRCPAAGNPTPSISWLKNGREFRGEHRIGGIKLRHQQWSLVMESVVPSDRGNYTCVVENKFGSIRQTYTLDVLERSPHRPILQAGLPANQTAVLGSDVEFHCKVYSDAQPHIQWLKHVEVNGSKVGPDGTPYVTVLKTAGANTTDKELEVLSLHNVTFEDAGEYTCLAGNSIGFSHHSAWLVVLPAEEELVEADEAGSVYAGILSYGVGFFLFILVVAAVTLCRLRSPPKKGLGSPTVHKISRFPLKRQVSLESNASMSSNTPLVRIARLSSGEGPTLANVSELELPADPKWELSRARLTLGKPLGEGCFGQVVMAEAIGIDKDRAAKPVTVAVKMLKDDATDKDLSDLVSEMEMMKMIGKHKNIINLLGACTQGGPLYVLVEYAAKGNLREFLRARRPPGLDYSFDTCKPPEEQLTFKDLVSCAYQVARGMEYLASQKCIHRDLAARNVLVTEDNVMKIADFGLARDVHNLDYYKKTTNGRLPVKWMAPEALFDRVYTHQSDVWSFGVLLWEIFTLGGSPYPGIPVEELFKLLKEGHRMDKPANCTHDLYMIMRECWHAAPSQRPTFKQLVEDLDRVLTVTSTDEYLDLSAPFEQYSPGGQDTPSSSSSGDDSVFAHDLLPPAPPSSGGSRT

| pIC50 [2] | inhibition at 100 µM [3] | Compound | also measured |
| --- | --- | --- | --- |
| – | 32% | Clc1cccc(-c2ccc3cn[nH]c3c2)c1 | – |
| 4.11 | – | c1ccc(-c2ccc3cn[nH]c3c2)cc1 | inhibition at 500 µM [1]: 53% |
| – | 29% | c1coc(-c2ccc3cn[nH]c3c2)c1 | – |
| 5.06 | – | Cc1cc(-c2ccc3cn[nH]c3c2)ccc1O | – |
| 4.05 | – | c1cncc(-c2ccc3cn[nH]c3c2)c1 | inhibition at 500 µM [1]: 66% |
| 4.85 | – | Oc1ccc(-c2ccc3cn[nH]c3c2)cc1F | – |
| – | 12% | Clc1ccc(-c2ccc3cn[nH]c3c2)cc1 | – |
| – | 19% | Fc1cccc(-c2ccc3cn[nH]c3c2)c1 | – |
| – | 11% | COc1ccc(-c2ccc3cn[nH]c3c2)cc1 | – |
| 5.00 | – | Oc1ccc(-c2ccc3cn[nH]c3c2)c(F)c1 | pIC50 [4]: < 4.00 |
| 4.44 | – | Clc1cncc(-c2ccc3cn[nH]c3c2)c1 | inhibition at 500 µM [1]: 73% |
| – | 20% | c1cc(-c2ccc3cn[nH]c3c2)cs1 | – |

The remaining lines, values behind:

| Compound | pIC50 [2] | inhibition at 100 µM [3] | also measured |
| --- | --- | --- | --- |
| c1cncc(-c2ccc3cc[nH]c3c2)c1 | – | – | inhibition at 500 µM [1]: 16% |
| Clc1cncc(-c2ccc3cc[nH]c3c2)c1 | < 3.30 | – | inhibition at 500 µM [1]: 21% |
| Cc1cc(O)ccc1-c1ccc2cn[nH]c2c1 | 5.19 | – | – |
| CCOc1cc(F)cc(-c2ccc3cn[nH]c3c2)c1 | 4.08 | – | pIC50 [4]: < 4.00 |
| FC(F)(F)c1cc(-c2ccc3cn[nH]c3c2)cc(C(F)(F)F)c1 | – | -5% | – |
| c1ccc(-c2ccc3cc[nH]c3c2)cc1 | – | – | inhibition at 500 µM [1]: 1% |
| CCOc1ccc(F)c(-c2ccc3cn[nH]c3c2)c1F | < 4.00 | – | pIC50 [4]: < 4.00 |
| Cc1csc(-c2ccc3cn[nH]c3c2)c1 | – | 19% | – |
| CCOc1cccc(-c2ccc3cn[nH]c3c2)c1F | 5.01 | – | pIC50 [4]: < 4.00 |
